# Assay results as given in PMC12406203 (Journal of Medicinal Chemistry, 2025).
# Where two headings read alike, the source gives them in different places.
# What was measured:
# [1] = system: ABL1-nonphosphorylated
# [2] = system: SRC
# [3] = system: MEK1
# [4] = system: MKNK2
# [5] = system: RAF1
# [6] = system: BV2 cells; test: MTS metabolic activity (cytotoxicity); type: cell-based, murine; details: BV2, MTS assay, 24 h, concentrations of 5 μM or less
# Protocol: The human hepatocellular carcinoma HepG2 and human neuroblastoma SH-SY5Y cell lines were purchased from American Type Culture Collection (Manassas, VA, USA). The murine microglia BV2 cells were a generous gift from Dr. Biljana Božić Nedeljković (University of Belgrade, Belgrade, Serbia). Cells were cultured in Advanced Dulbecco’s modified Eagle’s medium (Gibco, Thermo Fisher Scientific, Waltham, MA, USA) supplemented with 10% fetal bovine serum (FBS, Gibco), 2 mM L-glutamine, 50 U/mL penicillin and 50 μg/mL streptomycin (Sigma, St. Louis, MO, USA) in a humidified atmosphere of 95% air and 5% CO2 at 37 °C, and grown to 80% confluence. Prior to cell treatment, complete medium was replaced with serum-free medium. […]
# BV2 cells (5 × 10^3/well) and HepG2 and SH-SY5Y cells (1 × 10^4/well) were seeded in 96-well plates and assessed by MTS ([3-(4,5-dimethylthiazol-2-yl)-5-(3-carboxymethoxyphenyl)-2-(4-sulfophenyl)-2H tetrazolium, inner salt) assay for their response to compounds 94 and 95. Cells were treated with increasing concentrations of compounds (1–100 μM) in serum-free medium, and metabolic activity was assessed after 24 h using the CellTiter 96 Aqueous One Solution Cell Proliferation Assay (Promega, Madison, WI, USA), in accordance with the manufacturer’s instructions. Absorbance was measured with an automatic microplate reader (Tecan Safire^2, Switzerland) at a wavelength of 492 nm. […]
# [7] = system: p38α
# [8] = system: JAK3(JH1domain-catalytic)
# [9] = system: PDGFRA
# [10] = system: hAChE
# [11] = system: CDK9
# [12] = system: FGFR2
# [13] = system: MEK2
# [14] = system: p38γ
# [15] = system: ERBB2
# [16] = system: ACVR1B
# [17] = system: PAK4
# [18] = system: TRKA
# [19] = system: AKT2
# [20] = system: BRAF
# [21] = in vitro; details: PAMPA, pH 7.4
# [22] = system: CDK7
# [23] = system: EGFR
# [24] = system: ALK
# [25] = system: CDK2
# [26] = system: PKACα
# [27] = system: hAChE; remark: listed apart in the source
smiles,measurement,setting,value
"CC(C)Cn1ncc2cc(Cc3ccc(F)cc3F)c(C(=O)NCCN(C)C)cc21 [Compound 94, 5-(2,4-Difluorobenzyl)-N-(2-(dimethylamino)ethyl)-1-isobutyl-1H-indazole-6-carboxamide]",RA @ 1000nM,[1],85%
same,RA @ 10000nM,[1],97%
same,RA @ 1000nM,[2],100%
same,RA @ 10000nM,[2],94%
same,RA @ 1000nM,[3],98%
same,RA @ 10000nM,[3],74%
same,RA @ 1000nM,[4],76%
same,RA @ 10000nM,[4],80%
same,RA @ 1000nM,[5],100%
same,RA @ 10000nM,[5],100%
same,cell viability,[6],did not affect cell viability
same,RA @ 1000nM,[7],2.3%
same,RA @ 10000nM,[7],0.4%
same,RA @ 1000nM,[8],100%
same,RA @ 10000nM,[8],100%
same,RA @ 1000nM,[9],96%
same,RA @ 10000nM,[9],76%
same,RA at 100 µM,[10],69 ± 4%
same,RA @ 1000nM,[11],100%
same,RA @ 10000nM,[11],100%
same,RA @ 1000nM,[12],95%
same,RA @ 10000nM,[12],100%
same,RA @ 1000nM,[13],86%
same,RA @ 10000nM,[13],80%
same,RA @ 1000nM,[14],93%
same,RA @ 10000nM,[14],94%
same,RA @ 1000nM,[15],74%
same,RA @ 10000nM,[15],81%
same,RA @ 1000nM,[16],100%
same,RA @ 10000nM,[16],100%
same,RA @ 1000nM,[17],97%
same,RA @ 10000nM,[17],96%
same,RA @ 1000nM,[18],98%
same,RA @ 10000nM,[18],94%
same,RA @ 1000nM,[19],89%
same,RA @ 10000nM,[19],76%
same,RA @ 1000nM,[20],100%
same,RA @ 10000nM,[20],100%
same,Papp,[21],10.4 ×10⁻⁶ cm/s
same,RA @ 1000nM,[22],79%
same,RA @ 10000nM,[22],86%
same,RA @ 1000nM,[23],98%
same,RA @ 10000nM,[23],69%
same,RA @ 1000nM,[24],93%
same,RA @ 10000nM,[24],83%
same,RA @ 1000nM,[25],82%
same,RA @ 10000nM,[25],97%
same,RA @ 1000nM,[26],100%
same,RA @ 10000nM,[26],96%
"CN(C)CCNC(=O)c1cc2c(cnn2CC2CCCCC2)cc1Cc1ccc(F)cc1F [Compound 95, 1-(Cyclohexylmethyl)-5-(2,4-difluorobenzyl)-N-(2-(dimethylamino)ethyl)-1H-indazole-6-carboxamide]",RA @ 1000nM,[1],90%
same,RA @ 10000nM,[1],90%
same,RA @ 1000nM,[2],100%
same,RA @ 10000nM,[2],93%
same,RA @ 1000nM,[3],98%
same,RA @ 10000nM,[3],100%
same,RA @ 1000nM,[4],81%
same,RA @ 10000nM,[4],67%
same,RA @ 1000nM,[5],100%
same,RA @ 10000nM,[5],100%
same,cell viability,[6],did not affect cell viability
same,RA @ 1000nM,[7],6.7%
same,RA @ 10000nM,[7],0.1%
same,RA @ 1000nM,[8],100%
same,RA @ 10000nM,[8],100%
same,RA @ 1000nM,[9],92%
same,RA @ 10000nM,[9],92%
same,RA at 100 µM,[10],53 ± 1%
same,RA @ 1000nM,[11],100%
same,RA @ 10000nM,[11],93%
same,RA @ 1000nM,[12],100%
same,RA @ 10000nM,[12],100%
same,RA @ 1000nM,[13],95%
same,RA @ 10000nM,[13],100%
same,RA at 100 µM,[27],53.4 ± 0.8%
same,RA @ 1000nM,[14],100%
same,RA @ 10000nM,[14],99%
same,RA @ 1000nM,[15],84%
same,RA @ 10000nM,[15],78%
same,RA @ 1000nM,[16],100%
same,RA @ 10000nM,[16],100%
same,RA @ 1000nM,[17],100%
same,RA @ 10000nM,[17],88%
same,RA @ 1000nM,[18],100%
same,RA @ 10000nM,[18],92%
same,RA @ 1000nM,[19],100%
same,RA @ 10000nM,[19],88%
same,RA @ 1000nM,[20],100%
same,RA @ 10000nM,[20],100%
same,Papp,[21],13.2 ×10⁻⁶ cm/s
same,RA @ 1000nM,[22],88%
same,RA @ 10000nM,[22],77%
same,RA @ 1000nM,[23],100%
same,RA @ 10000nM,[23],100%
same,RA @ 1000nM,[24],62%
same,RA @ 10000nM,[24],92%
same,RA @ 1000nM,[25],99%
same,RA @ 10000nM,[25],100%
same,RA @ 1000nM,[26],100%
same,RA @ 10000nM,[26],94%
